In patent US9603877B2, “Isolated nucleotide molecule and method of sensing and killing of pathogenic microorganism” (priority 2011, dated 2017):

Experiments:
[1] = molecular target: T1, Pseudomonas aeruginosa LasR, SEQ ID NO: 1 (UniProt: PSPA7_3898), in sensing device pTetR-LasR-pLuxR-GFP (Pseudomonas aeruginosa, UniProt P25084); test: Characterization/transfer function of the LasR sensing device (pTetR-LasR-pLuxR-GFP) with 3OC12HSL, GFP reporter in E. coli TOP10; format: cell-based, P. aeruginosa
T1 construct: expressed in transfected cells; host or cells: E. coli TOP10 (plasmid pTetR-LasR-pLuxR-GFP in pSB1A2)
Description: Single colonies of pTetR-LasR-pLuxR-GFP (Top10) were each inoculated into 5 ml of pre-warmed supplemented M9 ampicillin for overnight culture in a shaking incubator at 37° C. After overnight growth, the cultures were diluted to OD600 of 0.002 and allowed to incubate further to OD600 of 0.5 or 5.0E7 cfu/ml under the same condition. […] The plate was incubated at 37° C. with rapid shaking in a microplate reader (Biotek) and assayed for green fluorescence. Time-series fluorescence and OD600 data were obtained at intervals of 10 mins for a total run time of 3 hrs. The measurement was zeroed with supplemented M9 to remove background fluorescence and OD600. A relative GFP production rate was derived as a ratio of background subtracted green fluorescence to OD600 value.
The four parameters (A, B, C, n) were estimated to obtain the best fit curve by performing a non-linear curve fitting using the experimental results. This curve fitting was performed using MATLAB Curve Fitting Toolbox (The Mathworks, Natwick, Mass., USA).

[2] = system: E. coli carrying pTetR-LasR-pLuxR-E7; test: Characterization of lysis device with 3OC12HSL (OD600 of E. coli carrying pTetR-LasR-pLuxR-E7); format: cell-based
Description: Characterization of Lysis Device with 3OC12HSL
Overnight cultures of pTetR-LasR-pLuxR-E7 (Top10) were diluted in supplemented M9 and harvested at an OD600 of 0.5. […] The plate was incubated at 37° C. with rapid shaking in a microplate reader (Biotek) and assayed for cell turbidity. Time-series absorbance at OD600 was obtained at intervals of 10 mins for a total run time of 6 hrs. The result was zeroed with supplemented M9 to remove background absorbance.
The system according to various embodiments was designed to release pyocin S5 through lysis upon detection of P. aeruginosa. To determine the lysis activity of the system, the behavior of the E7 lysis protein under the transcriptional control of the sensing device before integrating both the pyocin S5 and E7 genes into the system was characterized. […] To further confirm that the lysis activity may be sustained in the final system including pyocin S5, the morphology of E. coli containing the final system (i.e., pTetR-LasR-pLuxR-S5-pLuxR-E7; FIG. 1B) was monitored using FESEM.

T1 sequence (P25084 whole entry M144I): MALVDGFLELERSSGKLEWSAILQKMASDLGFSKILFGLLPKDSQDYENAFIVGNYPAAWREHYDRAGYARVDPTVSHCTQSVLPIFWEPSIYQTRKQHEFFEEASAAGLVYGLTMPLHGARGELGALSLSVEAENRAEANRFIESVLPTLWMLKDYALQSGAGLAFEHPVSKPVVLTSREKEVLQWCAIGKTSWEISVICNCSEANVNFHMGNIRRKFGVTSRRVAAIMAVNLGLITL

CCCCCCCCCC(=O)CC(=O)N[C@H]1CCOC1=O [3OC12HSL, N-3-oxododecanoyl homoserine lactone]
input concentration at which the sensing device saturated ([1]; Hill model, >3.3E-7M but <1.0E-6M): > 330 nM
maximum output (GFP production rate) at saturation ([1]; Hill model, input concentration >3.3E-7M but <1.0E-6M): 1.96 RFU per OD per minute
concentration at which GFP production rate peaked ([1]; sharp increase beyond 1.0E-7M, sharp decline after peak): 1000 nM
growth/lysis of E. coli (OD600) at 1.0E-6 and 1.0E-4M 3OC12HSL ([2]; 1.0E-6 and 1.0E-4M 3OC12HSL): significant reduction in optical density
growth/lysis of E. coli (OD600) at 1.0E-8M 3OC12HSL ([2]; 1.0E-8M 3OC12HSL): no noticeable transition into a lysis state
minimal effective concentration ([2]; Escherichia coli, 2 h, read-out: concentration causing observable cell lysis): ≥ 1 µM
